According to ChEMBL document CHEMBL5055643, “Sophoraflavanone G Resensitizes ABCG2-Overexpressing Multidrug-Resistant Non-Small-Cell Lung Cancer Cells to Chemotherapeutic Drugs” (J Nat Prod, 2021):

How the values were obtained:
Format in all cases: functional
[1] = system: HEK293; assay: Chemo-sensitizing activity against human HEK293 cells assessed as reversal fold at 1 uM measured after 72 hrs in presence of topotecan by CCK8 assay relative to control
[2] = system: HEK293; assay: Chemo-sensitizing activity against ABCG2-overexpressing human HEK293/482R cells assessed as reversal fold at 1 uM measured after 72 hrs in presence of mitoxatrone by CCK8 assay relative to control
[3] = system: NCI-H460; assay: Chemo-sensitizing activity against human NCI-H460 cells assessed as reversal fold at 1 uM measured after 72 hrs in presence of SN-38 by CCK8 assay relative to control
[4] = system: A549; assay: Chemo-sensitizing activity against becatecarin-selected ABCG2-overexpressing human A549/Bec150 cells assessed as reversal fold at 1 uM measured after 72 hrs in presence of mitoxantrone by CCK8 assay relative to control
[5] = system: NCI-H460; assay: Chemo-sensitizing activity against human NCI-H460 cells assessed as reversal fold at 1 uM measured after 72 hrs in presence of topotecan by CCK8 assay relative to control
[6] = system: HEK293; assay: Chemo-sensitizing activity against human HEK293 cells assessed as reversal fold at 1 uM measured after 72 hrs in presence of SN-38 by CCK8 assay relative to control
[7] = system: NCI-H460; assay: Chemo-sensitizing activity against mitoxantrone-selected ABCG2-overexpressing human NCI-H460/MX20 cells assessed as reversal fold at 1 uM measured after 72 hrs in presence of SN-38 by CCK8 assay relative to control
[8] = system: HEK293; assay: Chemo-sensitizing activity against ABCG2-overexpressing human HEK293/482R cells assessed as reversal fold at 1 uM measured after 72 hrs in presence of SN-38 by CCK8 assay relative to control
[9] = system: NCI-H460; assay: Chemo-sensitizing activity against mitoxantrone-selected ABCG2-overexpressing human NCI-H460/MX20 cells assessed as reversal fold at 1 uM measured after 72 hrs in presence of mitoxantrone by CCK8 assay relative to control
[10] = system: HEK293; assay: Chemo-sensitizing activity against ABCG2-overexpressing human HEK293 cells assessed as reversal fold at 1 uM measured after 72 hrs in presence of topotecan by CCK8 assay relative to control
[11] = system: NCI-H460; assay: Chemo-sensitizing activity against human NCI-H460 cells assessed as reversal fold at 1 uM measured after 72 hrs in presence of mitoxantrone by CCK8 assay relative to control
[12] = system: A549; assay: Chemo-sensitizing activity against becatecarin-selected ABCG2-overexpressing human A549/Bec150 cells assessed as reversal fold at 1 uM measured after 72 hrs in presence of topotecan by CCK8 assay relative to control
[13] = system: A549; assay: Chemo-sensitizing activity against becatecarin-selected ABCG2-overexpressing human A549/Bec150 cells assessed as reversal fold at 1 uM measured after 72 hrs in presence of SN-38 by CCK8 assay relative to control
[14] = system: HEK293; assay: Chemo-sensitizing activity against human HEK293 cells assessed as reversal fold at 1 uM measured after 72 hrs in presence of mitoxatrone by CCK8 assay relative to control
[15] = system: NCI-H460; assay: Chemo-sensitizing activity against mitoxantrone-selected ABCG2-overexpressing human NCI-H460/MX20 cells assessed as reversal fold at 1 uM measured after 72 hrs in presence of topotecan by CCK8 assay relative to control
[16] = system: A549; assay: Chemo-sensitizing activity against human A549 cells assessed as reversal fold at 1 uM measured after 72 hrs in presence of topotecan by CCK8 assay relative to control
[17] = system: A549; assay: Chemo-sensitizing activity against human A549 cells assessed as reversal fold at 1 uM measured after 72 hrs in presence of SN-38 by CCK8 assay relative to control
[18] = system: A549; assay: Chemo-sensitizing activity against human A549 cells assessed as reversal fold at 1 uM measured after 72 hrs in presence of mitoxantrone by CCK8 assay relative to control
[19] = system: KB-V1; assay: Chemo-sensitizing activity against ABCB1-overexpressing human KB-V1 cells assessed as reversal fold at 1 uM measured after 72 hrs in presence of vincristine by CCK8 assay relative to control
[20] = system: OVCAR-8; assay: Chemo-sensitizing activity against human OVCAR-8 cells assessed as reversal fold at 1 uM measured after 72 hrs in presence of vincristine by CCK8 assay relative to control
[21] = system: NCI/ADR-RES; assay: Chemo-sensitizing activity against ABCB1-overexpressing human NCI/ADR-RES cells assessed as reversal fold at 1 uM measured after 72 hrs in presence of colchicine by CCK8 assay relative to control
[22] = system: KB 3-1; assay: Chemo-sensitizing activity against human KB 3-1 cells assessed as reversal fold at 1 uM measured after 72 hrs in presence of colchicine by CCK8 assay relative to control
[23] = system: OVCAR-8; assay: Chemo-sensitizing activity against human OVCAR-8 cells assessed as reversal fold at 1 uM measured after 72 hrs in presence of paclitaxel by CCK8 assay relative to control
[24] = system: NCI/ADR-RES; assay: Chemo-sensitizing activity against ABCB1-overexpressing human NCI/ADR-RES cells assessed as reversal fold at 1 uM measured after 72 hrs in presence of vincristine by CCK8 assay relative to control
[25] = system: HEK293; assay: Chemo-sensitizing activity against human HEK293 cells assessed as reversal fold at 1 uM measured after 72 hrs in presence of vincristine by CCK8 assay relative to control
[26] = system: HEK293; assay: Chemo-sensitizing activity against ABCB1-overexpressing human HEK293/MDR19 cells assessed as reversal fold at 1 uM measured after 72 hrs in presence of colchicine by CCK8 assay relative to control
[27] = system: HEK293; assay: Chemo-sensitizing activity against human HEK293 cells assessed as reversal fold at 1 uM measured after 72 hrs in presence of colchicine by CCK8 assay relative to control
[28] = system: OVCAR-8; assay: Chemo-sensitizing activity against human OVCAR-8 cells assessed as reversal fold at 1 uM measured after 72 hrs in presence of colchicine by CCK8 assay relative to control
[29] = system: HEK293; assay: Chemo-sensitizing activity against ABCB1-overexpressing human HEK293/MDR19 cells assessed as reversal fold at 1 uM measured after 72 hrs in presence of vincristine by CCK8 assay relative to control
[30] = system: HEK293; assay: Chemo-sensitizing activity against human HEK293 cells assessed as reversal fold at 1 uM measured after 72 hrs in presence of paclitaxel by CCK8 assay relative to control
[31] = system: KB-V1; assay: Chemo-sensitizing activity against ABCB1-overexpressing human KB-V1 cells assessed as reversal fold at 1 uM measured after 72 hrs in presence of paclitaxel by CCK8 assay relative to control
[32] = system: KB 3-1; assay: Chemo-sensitizing activity against human KB 3-1 cells assessed as reversal fold at 1 uM measured after 72 hrs in presence of paclitaxel by CCK8 assay relative to control
[33] = system: HEK293; assay: Chemo-sensitizing activity against ABCB1-overexpressing human HEK293/MDR19 cells assessed as reversal fold at 1 uM measured after 72 hrs in presence of paclitaxel by CCK8 assay relative to control
[34] = system: KB-V1; assay: Chemo-sensitizing activity against ABCB1-oveexpressing human KB-V1 cells assessed as reversal fold at 1 uM measured after 72 hrs in presence of colchicine by CCK8 assay relative to control
[35] = system: NCI/ADR-RES; assay: Chemo-sensitizing activity against ABCB1-overexpressing human NCI/ADR-RES cells assessed as reversal fold at 1 uM measured after 72 hrs in presence of paclitaxel by CCK8 assay relative to control
[36] = system: KB 3-1; assay: Chemo-sensitizing activity against human KB 3-1 cells assessed as reversal fold at 1 uM measured after 72 hrs in presence of vincristine by CCK8 assay relative to control

COc1ccc2c3c([nH]c2c1)[C@H](CC(C)C)N1C(=O)[C@H](CCC(=O)OC(C)(C)C)NC(=O)[C@@H]1C3
fold change (FC) [1]: 0.9
fold change (FC) [2]: 11.9
fold change (FC) [3]: 3
fold change (FC) [4]: 14.9
fold change (FC) [5]: 2.7
fold change (FC) [6]: 1
fold change (FC) [7]: 20.6
fold change (FC) [8]: 24.1
fold change (FC) [9]: 18
fold change (FC) [10]: 5.8
fold change (FC) [11]: 1.7
fold change (FC) [12]: 9.1
fold change (FC) [13]: 13.2
fold change (FC) [14]: 1.1
fold change (FC) [15]: 22.6
fold change (FC) [16]: 1.7
fold change (FC) [17]: 1.6
fold change (FC) [18]: 2

COc1cc2c(cc1OC)CN(CCc1ccc(NC(=O)c3cc(OC)c(OC)cc3NC(=O)c3cnc4ccccc4c3)cc1)CC2 [TARIQUIDAR]
fold change (FC) [19]: 786
fold change (FC) [20]: 1.3
fold change (FC) [21]: 45
fold change (FC) [22]: 1.2
fold change (FC) [23]: 1
fold change (FC) [24]: 174
fold change (FC) [25]: 1.5
fold change (FC) [26]: 12.9
fold change (FC) [27]: 1
fold change (FC) [28]: 1
fold change (FC) [29]: 245.2
fold change (FC) [30]: 1
fold change (FC) [31]: 1281
fold change (FC) [32]: 0.9
fold change (FC) [33]: 309
fold change (FC) [34]: 50.7
fold change (FC) [35]: 1040
fold change (FC) [36]: 1.1
